This is an account of results in patent US20110251188A1, “ACENAPHTHO HETEROCYCLE COMPOUNDS, CYCLODEXTRIN INCLUSION COMPOUNDS AND COMPLEXES, AND USES IN THE MANUFACTURES OF BH3 PROTEIN ANALOGUE, BCL-2 FAMILY PROTEIN INHIBITORS THEREOF” (DALIAN UNIVERSITY OF TECHNOLOGY, priority 2008, published 2011).

For series [1], the target named is T1, interaction between Bcl-2 and Bax (Homo sapiens, UniProt P10415).
T1 construct: expressed in transfected cells; host or cells: Hela cells
In words: intracellular fluorescence polarization energy transfer (FRET), Hela cells transfected with Bcl-2-CFP and Bax-YFP. Type of series: cell-based. Particulars: for Time for which the compound interfered with the interaction between Bcl-2 and Bax: goes with the concentration of E11; for Concentration at which the compound interfered with the interaction between Bcl-2 and Bax: goes with the time of E12. On the procedure:
24 hours later (please refer to FIG. 2), the cells were washed with PBS for three times. The fluorescence value was detected by GENIOS fluorescence enzyme-labelled meter (TECAN, Swiss). In time-dependent experiment, the transfected cells were inoculated in a 6-well plate, after that, 40 μM of the compound was added thereinto. 3, 6 and 24 hours later (FIG. 3), the fluorescence intensities were detected by plate reader. As for the cell group in which only Bcl-2-CFP plasmid was transfected, the values at 475 nm emission wave length and 433 nm excitation wave length were recorded. As for the cell group in which only Bax-YFP plasmid was transfected, the values at 527 nm emission wave length and 505 nm excitation wave length were recorded. […] The ratio of fluorescence intensity at 527 nm and 475 nm emission wave lengths was FRET. The FRET for the control group in which the plasmid was solely transfected was set as 1.0. […] The cellular vitality was detected by MTT method.
Wherein the concentration and time meant that the detected compound interfered with the interaction between Bcl-2 and Bax at the concentration for the time period.

Another series concerns MCF-7 cells. As to the kind of experiment: cytotoxicity depending on BAX/BAK, MTT, MCF-7 cells with or without BAX/BAK interfering plasmid. Type of series: cell-based. The method, then:
3 ng of BAX/BAK interfering plasmid was transfected into MCF-7 cells by using calcium phosphate coprecipitation method, 24 hours later, the cells were collected. The expressions after the BAX and BAK proteins interfered with RNA was detected by Western, and the cell groups without plasmid transfection were treated similarly and were set as the control group. The transfected cells were inoculated in a 96-well plate (1×10^5 cells/well), the control experiment of the cell group without plasmid transfection was carried out in parallel. The compound 3-thiomorpholinyl-8-oxo-8 H-acenaphtho[1,2-b]pyrrole-9-carbonitrile to be detected was added thereinto according to the concentration gradient designed before the experiment. 48 hours later, the cellular vitality was detected by MTT. The experimental results were shown in FIG. 6, Gossypol as nonspecific BH3 analogue was treated in parallel.

In another series the target is T2, GST-Bcl-2 protein (Homo sapiens, UniProt P10415).
T2 construct: fused on or other part: GST tag on Bcl-2
As to the kind of experiment: fluorescence polarization assay, competitive binding against FAM-Bid peptide. Conditions: Table 3; FAM-Bid competition; table does not say whether Bcl-2 or Mcl-1; read-out: Binding constant. On the procedure: A Bid BH3 peptide (amino acids: 79-99: […]) having 21 amino acids was synthesized and marked with 6-carboxyfluorescein N-succinimidyl ester (FAM) as fluorescent tag (FAM-Bid) at the N-terminal. The reaction system used in the competitive binding experiment was GST-Bcl-2 protein (40 nM) or Mcl-1 protein, which was dissolved in the reaction buffer (100 mM K3PO4, pH 7.5; 100 μg/ml bovine γ albumin; 0.02% sodium azide) together with FAM-Bid polypeptide (5 nM). In a 96-well plate, 100 μL of the reaction system was added into each well. Then 1 μL different concentration of 3-thiomorpholinyl-8-oxo-8H-acenaphtho[1,2-b]pyrrole-9-carbonitrile mother solution to be detected dissolved in DMSO was added thereinto until the final concentration met the experimental design requirements. Meanwhile, two control groups were established, one with the reaction system only contains Bcl-2 or Mcl-1 and FAM-Bid (equivalent to 0% inhibition rate), the other with the reaction system only containing FAM-Bid peptide. After 4 hours of incubation, the 96-well plate was detected by enzyme-labelled meter. The fluorescent polarization value (mP) was tested at […]. Ki value was deduced according to calculation formula. The competitive binding constant between the compound and Bcl-2 was 310 nM.

In another series the test system is Bax protein. As to the kind of experiment: co-localization between Bax protein and chondriosome, Bax-YFP transfected MCF-7 cells. Conditions: for Time for which the compound drove the BAX to shift towards the chondriosome: goes with the concentration of E14; for Concentration at which the compound drove the BAX to shift towards the chondriosome: goes with the time of E15. Type of series: cell-based. On the procedure: 5 ng of Bax-YFP plasmid was transfected into MCF-7 cells by using calcium phosphate coprecipitation method, 24 hours later, the cells were inoculated in a 6-well plate (0.2×10^6 cells/well), and 10 μM of the compound 3-thiomorpholinyl-8-oxo-8 H-acenaphtho[1,2-b]pyrrole-9-carbonitrile to be detected was added thereinto. 6 hours later, the cells were washed with PBS and hatched away from light with 50 nM Mito Tracker Red CMXRos (chondriosome specific probes; red) for 10 minutes. Then the cells were washed with PBS for three times, and the fluorescent image was scanned with Radiance2000 laser confocal microscopy (Bio-Rad, USA). Meanwhile, dual channel scanning was carried out, one channel was used to scan the green fluorescence of Bax-YFP, and the other channel was used to scan the red fluorescence of the CMXRos probe for indicating the chondriosome. […] When the Bax protein was localized on the chondriosome, the green and red fluorescence was superimposed into orange, as shown in FIG. 4.
Other 8 compounds were detected by the same experimental method as described above. […] Wherein the concentration and time meant that the detected compound simulated the BH3-only protein and driven the BAX to shift towards the chondriosome at the concentration for the time period.

In series [2] the test system is hepatoma carcinoma cells H22. As to the kind of experiment: in vivo tumor model, subcutaneous H22 tumor in Kunming mice. Conditions: H22 mouse model of Example 25; dose and route not stated at the place. On the procedure:
The Kunming mice (in China) were randomly divided into groups, with 10 mice in each group. The cultivated hepatoma carcinoma cells H22 were inoculated subcutaneously in the oxter of the mice with 200 μL/mouse. After bearing the cancer cells for five days, the subcutaneous tumor was formed. Then the compound 3-thiomorpholinyl-8-oxo-8H-acenaphtho[1,2-b]pyrrole-9-carbonitrile and γ-cyclodextrin inclusion compound thereof were given by peritoneal injection, and the compound to be detected included by γ-cyclodextrin was given by oral administration. The detection conditions comprise:
Blank control group: the mice were not treated in any manner after the bearing cancer;
Control group (1): the mice were given a peritoneal injection of DMSO solution every other day after the bearing cancer, 10 days in total;
Control group (2): the mice were given a peritoneal injection of cyclodextrin solution every other day after the bearing cancer, 10 days in total;
Experimental group (1): the mice were given a peritoneal injection of DMSO solution equivalent to 0.03 mg/kg BW compound every other day after the bearing cancer, 10 days in total;
Experimental group (2): the mice were given a peritoneal injection of DMSO solution equivalent to 0.3 mg/kg BW compound every other day after the bearing cancer, 10 days in total;
Experimental group (3): the mice were given a peritoneal injection of inclusion compound water solution equivalent to 0.3 mg/kg BW compound every other day after the bearing cancer, 10 days in total;
Experimental group (4): the mice were given an intragastric administration of inclusion compounds water solution equivalent to 0.3 mg/kg BW compound every other day after the bearing cancer, 10 days in total;
During the experimental period, the length-diameter (a) and short diameter (b), which was perpendicular to the length-diameter, of the tumor were detected twice every week. The gross tumor volume was determined according to the formula: ½ab^2. The survival time of the animal was observed. The tumor inhibition rate was calculated by the tumor volume on the fortieth day.

Series [3] in a line: phase solubility experiment (solubility in water before and after cyclodextrin inclusion or complexation). Conditions: thermodynamic from solid, Solubility of compounds.
The subject of a further series is Mcl-1. In words: Western blotting, inhibition (downregulation) of Mcl-1 in tumor cells, Example 23. Type of series: cell-based. On the procedure:
(§1) The interest protein was detected by the corresponding antibody. The expression of the interest protein in the cells was detected by horseradish peroxidase-labeled secondary antibodies in combination with ECL coloration method. […] The concentration of the protein bands in the Western images were carried out semiquantitative analysis and normalization treatment with KODAK Gel Logic 1500 imaging system software.

A further series has as its system Bcl-2. In words: Western blotting, inhibition (downregulation) of Bcl-2 in tumor cells, Example 23. Type of series: cell-based. The method, then:
as §1

[4] abbreviates: Table 1, compound per se, before inclusion.

Converted amounts (≈) assume the structure as drawn.

T2 sequence (P10415 whole entry, the tested form may be a part): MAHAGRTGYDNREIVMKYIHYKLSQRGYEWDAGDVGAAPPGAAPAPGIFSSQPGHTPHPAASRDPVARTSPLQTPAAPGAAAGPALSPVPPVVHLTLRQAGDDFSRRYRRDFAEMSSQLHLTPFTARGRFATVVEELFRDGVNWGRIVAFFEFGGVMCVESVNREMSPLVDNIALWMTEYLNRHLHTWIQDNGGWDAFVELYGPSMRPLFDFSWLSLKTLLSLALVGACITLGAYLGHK
T1 sequence (P10415 whole entry): as the sequence (P10415 whole entry, the tested form may be a part) above

Regarding `N#CC1=C2C(=NC1=O)c1cccc3c(C(=O)c4cccc(F)c4)ccc2c13` [3-(3-fluorophenylformyl)-8-oxo-8H-acenaphtho[1,2-b]pyrrole-9-carbonitrile], in series [1], the “Time for which the compound interfered with the interaction between Bcl-2 and Bax” value (“Time for which the compound interfered” below) was determined as 6 h; the “Concentration at which the compound interfered with the interaction between Bcl-2 and Bax” value is 10.0 µM. The “dependence of cytotoxicity on BAX/BAK” value with MCF-7 cells was “absolute dependence on BAX/BAK”.

For the molecule “3-phenoxy-8-oxo-8H-acenaphtho[1,2-b]pyrrole-9-carboxylate”, the Ki at GST-Bcl-2 protein is 790 nM. In series [1], the “Time for which the compound interfered” value came out at 6 h; the “Concentration at which the compound interfered with the interaction between Bcl-2 and Bax” value stood at 10.0 µM.

In the case of `O=C(O)C1=C2C(=NC1=O)c1cccc3c(Oc4ccccc4)ccc2c13` [3-phenoxy-8-oxo-8H-acenaphtho[1,2-b]pyrrole-9-carboxylic acid], in the series on Bax protein, the “Time for which the compound drove the BAX to shift towards the chondriosome” value was determined as 6 h and the “Concentration at which the compound drove the BAX to shift towards the chondriosome” value came out at 10.0 µM. The “dependence of cytotoxicity on BAX/BAK” value with MCF-7 cells is given as “absolute dependence on BAX/BAK”.

`NC(=O)C1=C2C(=NC1=O)c1cccc3c(N4CCSCC4)ccc2c13` [3-thiomorpholinyl-8-oxo-8H-acenaphtho[1,2-b]pyrrole-9-carboxamide] yielded a tumor inhibition rate in series [2] of 45%.

`N#CC1=C2C(=NC1=O)c1cccc3c(Sc4ccc(N)cc4)ccc2c13` [3-(4-aminophenylthio)-8-oxo-8H-acenaphtho[1,2-b]pyrrole-9-carbonitrile]: the solubility in series [3] (setting [4]) was 0.25 µM (≈ 0.0884 µg/mL).

Regarding `Cc1ccc(Oc2ccc3c4c(cccc24)C2=NC(=O)C(C#N)=C23)cc1` [3-(p-methylphenoxy)-8-oxo-8H-acenaphtho[1,2-b]pyrrole-9-carbonitrile], in series [3] (setting [4]), the concentration in solution (solubility) came to 0.25 µM (≈ 0.0841 µg/mL).

Consider `N#CC1=C2C(=NC1=O)c1cccc3c(OC4CCOCC4)ccc2c13` [3-(tetrahydro-2H-pyranyl-4-oxo)-8-oxo-8H-acenaphtho[1,2-b]pyrrole-9-carbonitrile], for which, at GST-Bcl-2 protein, the Ki is 600 nM.

Consider `N#CC1=C2C(=NC1=O)c1cccc3c(Sc4ccccc4)ccc2c13` [3-phenylthio-8-oxo-8H-acenaphtho[1,2-b]pyrrole-9-carbonitrile], for which the solubility in series [3] (setting [4]) worked out at 0.22 µM (≈ 0.0744 µg/mL).

As for `COc1ccc(Oc2ccc3c4c(cccc24)C2=NC(=O)C(C#N)=C23)cc1` [3-(4-methoxyphenoxy)-8-oxo-8H-acenaphtho[1,2-b]pyrrole-9-carbonitrile], the solubility in series [3] (setting [4]) came out at 0.32 µM (≈ 0.113 µg/mL).

`O=C(O)C1=C2C(=NC1=O)c1cccc3c(Sc4ccc(Br)cc4)ccc2c13` [3-(4-bromophenylthio)-8-oxo-8H-acenaphtho[1,2-b]pyrrole-9-carboxylic acid] registered a tumor inhibition rate in series [2] of 45%. In series [3] (Table 2, compound per se, before complexation), this molecule had a solubility of 0.55 µM (≈ 0.24 µg/mL).

Take `N#CC1=C2C(=NC1=O)c1ccc(Oc3ccccc3)c3cccc2c13` [4-phenoxy-8-oxo-8H-acenaphtho[1,2-b]pyrrole-9-carbonitrile]: on GST-Bcl-2 protein, the Ki was 890 nM. In series [1], the “Time for which the compound interfered” value came out at 6 h; the “Concentration at which the compound interfered with the interaction between Bcl-2 and Bax” value amounted to 10.0 µM. Also, in the series with Bax protein, the “Time for which the compound drove the BAX to shift towards the chondriosome” value stood at 6 h and the “Concentration at which the compound drove the BAX to shift towards the chondriosome” value was found to be 10.0 µM.

Regarding `CC(C)(C)NC(=O)C1=C2C(=NC1=O)c1cccc3c(Oc4ccccc4)ccc2c13` [3-phenoxy-8-oxo-8H-acenaphtho[1,2-b]pyrrole-9-N-tert-butylamide], the “downregulation of Mcl-1 protein, semiquantitative analysis (band concentration, control = 1)” value in the series on Mcl-1 (6 hours) amounted to 0.99; in the series on Mcl-1 (12 hours), 0.99; in the series with Mcl-1 (18 hours), 0.78; with Mcl-1 (24 hours), 0.51. Also, in the series with Mcl-1 (Western blotting, tumor cells), the “inhibition against Mcl-1” value is “had the inhibition against Bcl-2 and Mcl-1 proteins”. The “downregulation of Bcl-2 protein, semiquantitative analysis (band concentration, control = 1)” value in the series on Bcl-2 (2 hours) came to 0.80; with Bcl-2 (6 hours), 0.56. In addition, the “inhibition against Bcl-2” value in the series with Bcl-2 (Western blotting, tumor cells) was “had the inhibition against Bcl-2 and Mcl-1 proteins”.

Regarding `CC(C)c1ccc(Oc2ccc3c4c(cccc24)C2=C(C#N)C(=O)N=C23)cc1` [4-(4-isopropylphenoxy)-8-oxo-8H-acenaphtho[1,2-b]pyrrole-9-carbonitrile], the concentration in solution in series [3] (setting [4]) (solubility) came to 0.12 µM (≈ 0.0437 µg/mL).
